# In patent publication US4029881A, “Antibiotic 9-acyl-3"-thiomethoxymethyl-SF-837 composition and process for preparing the same” (Meiji Seika Co., Ltd., priority 1972, dated 1977):
# Like-named read-outs stand apart in the source and are kept apart here.
# Columns and labels:
# Escherichia coli = assay: antimicrobial spectrum, minimal inhibitory concentration; format: cell-based
# From the text: (§1) The antimicrobial spectrum of the 9-acyl-3"-thiomethoxymethyl-SF-837 substance obtained according to the present invention is shown in Table 1.
# (§2) The antimicrobial spectrum of the 9-acetyl- and 9-propionyl-3"-thiomethoxymethyl-SF-837 substance made according to the invention.
# Mycobacterium 607 = assay: as above; format: cell-based
# From the text: as §1, §2
# [1] = system: Mycoplasma gallisepticum CH3T; assay: as above; format: cell-based; settings: Mycoplasmoides gallisepticum
# From the text: as §1, §2
# [2] = system: Mycoplasma gallisepticum KP-13; assay: as above; format: cell-based; settings: Mycoplasmoides gallisepticum, KP13
# From the text: as §1, §2
# [3] = system: Mycoplasma gallisepticum KP-3; assay: as above; format: cell-based; settings: Mycoplasmoides gallisepticum, KP3
# From the text: as §1, §2
# [4] = system: Mycoplasma gallisepticum S-15P; assay: as above; format: cell-based; settings: Mycoplasmoides gallisepticum, read-out: Minimal Inhibitory Concentration
# From the text: as §1, §2
# [5] = system: Mycoplasma gallisepticum S-35P; assay: as above; format: cell-based; settings: Mycoplasmoides gallisepticum, read-out: Minimal Inhibitory Concentration
# From the text: as §1, §2
# [6] = system: Mycoplasma gallisepticum S-6; assay: as above; format: cell-based; settings: Mycoplasmoides gallisepticum, S6
# From the text: as §1, §2
# [7] = system: Neisseria gonorrhoeae Megurita; assay: as above; format: cell-based
# From the text: as §1, §2
# Neisseria meningitidis = assay: as above; format: cell-based
# From the text: as §1, §2
# Staphylococcus aureus = assay: as above; format: cell-based
# From the text: as §1, §2
# Vibrio coli 34E = assay: as above; format: cell-based; settings: Campylobacter coli
# From the text: as §1, §2
# Vibrio coli SD-358 = assay: as above; format: cell-based; settings: Campylobacter coli, SD358
# From the text: as §1, §2
# Vibrio coli SD-362 = assay: as above; format: cell-based; settings: Campylobacter coli, SD362
# From the text: as §1, §2
# [8] = system: Mycoplasma gallisepticum T-4AT (tyrosine-resistant); assay: microbe, parasite or virus in culture; format: cell-based; settings: Mycoplasmoides gallisepticum, read-out: Minimal Inhibitory Concentration
# From the text: as §1, §2
# [9] = system: Staphylococcus aureus Strain 209-P; assay: therapeutic effect on staphylococcal infection of mice (Table 2); format: in vivo; settings: 350mg/Kg oral; intraperitoneal infection by Staphylococcus aureus 209-P
# From the text: Since the 9-acyl-3"-thiomethoxymethyl-SF-837 substance is inhibitory against Gram-positive bacteria as the SF-837 substance is, it is as well available as an antimicrobial agent. Particularly, it is notable that the in vitro antimicrobial activity of the 9-acyl-3"-thiomethoxymethyl-SF-837 substance of the present invention against Escherichia coli, Mycobacterium, Mycoplasma, and macrolide-resistant Mycoplasma is higher than that of the SF-837 substance. Furthermore, the results of the therapeutic tests using the mice infected by Staphylococcus aureus Strain 209 P was better with the said 9-acyl-3"-thiomethoxymethyl-SF-837 substance than with its parent substance (see Table 2).
# Therapeutic effect of the 9-acyl-3"thiomethoxy-methyl-SF-837 substance made according to the invention on the staphylococcal infection of mice in laboratory*).
# *)Infection of mouse intraperitoneally by Staphylococcus aureus Strain
# [10] = system: Staphylococcus aureus 209-P; assay: therapeutic effect, treatment of animals infected by Staphylococcus (Table 3 A); format: in vivo, ICR-JCL mouse; settings: orally once, 10 LD50
# From the text: Therapeutic effect of the 9-acyl-3"-thiomethoxymethyl-SF-837 substance against bacterial infections.
# A. treatment of animals infected by Staphylococcus. Animals tested: ICR-JCL mouse, 4-week old, male, 10 heads for each group.
# Bacterium inoculated: Staphylococcus aureus 209-P.
# Method of administration: Samples were suspended in a sterilized 2% aqueous gum arabic solution and administered once to the mice inoculated with the bacterium.
# [11] = system: Streptococcus pyrogenes Ti-125 Gr-A Type I; assay: therapeutic effect, treatment of animals infected by Streptococcus (Table 3 B); format: in vivo, ICR-JCL mouse; settings: orally once, 5LD50
# Method: B. treatment of animals infected by Streptococcus
# Animals tested: The same as in A.
# Method of administration: The same as in A.
# Bacterium inoculated: Streptococcus pyrogenes Ti-125 Gr-A Type I.
# Inoculum size: 1× 10^7 cells/0.5 ml/mouse(5LD50).
# acute toxicity = format: in vivo, ICR-JCL mice; settings: intraperitoneal, male mice, dead/tested
# From the text: The acute toxicity of the 9-acyl-3"-thiomethoxymethyl-SF-837 substance
# Animals tested: ICR-JCL mice, male.
# Samples: Each substance was suspended in a 5% aqueous arabic gum solution.
# Method of administration: Intraperitoneal injection.
# [12] = S15P, Mycoplasma gallisepticum S-15P
# [13] = S35P, Mycoplasma gallisepticum S-35P
SMILES,MIC (Escherichia coli),MIC (Mycobacterium 607),MIC [1],MIC [2],MIC [3],MIC [6],MIC [7],MIC (Neisseria meningitidis),MIC (Staphylococcus aureus),MIC (Vibrio coli 34E),Survival rate ([10]; 150 mg/Kg),Survival rate ([10]; 200 mg/Kg),Survival rate ([10]; 350 mg/Kg),Survival rate ([10]; 400 mg/Kg),Survival rate ([11]; 100 mg/Kg),Survival rate ([11]; 200 mg/Kg),Survival rate ([11]; 300 mg/Kg),Survival rate ([11]; 400 mg/Kg),"Mortality (acute toxicity; 2,000 mg/Kg)","Mortality (acute toxicity; 4,000 mg/Kg)",other results
CCC(=O)OC1CC(=O)OC(C)CC=CC=CC(O)C(C)CC(CC=O)C(OC2OC(C)C(OC3CC(C)(O)C(OC(=O)CC)C(C)O3)C(N(C)C)C2O)C1OC (stereo not shown) [SF-837],100 µg/mL,25 µg/mL,< 0.05 µg/mL,< 0.05 µg/mL,< 0.05 µg/mL,0.1 µg/mL,25 µg/mL,6.25 µg/mL,0.78 µg/mL,12.5 µg/mL,20%,40%,60%,90%,70%,90%,100%,100%,2/3,2/3,MIC [4]: 0.05 µg/mL; MIC [5]: 0.05 µg/mL; MIC (Vibrio coli SD-358): > 50 µg/mL; MIC (Vibrio coli SD-362): > 50 µg/mL; MIC [8]: > 100 µg/mL; Survival rate in a week after oral administration [9]: 37.5%
"CCC(=O)OC1C=CC=CCC(C)OC(=O)CC(OC(=O)CC)C(OC)C(OC2OC(C)C(OC3CC(C)(OCSC)C(OC(=O)CC)C(C)O3)C(N(C)C)C2O)C(CC=O)CC1C (stereo not shown) [9-propionyl-3""-thiomethoxymethyl-SF-837]",50 µg/mL,6.25 µg/mL,< 0.1 µg/mL,< 0.1 µg/mL,< 0.1 µg/mL,< 0.1 µg/mL,100 µg/mL,6.25 µg/mL,0.78 µg/mL,25 µg/mL,30%,70%,90%,100%,100%,100%,100%,100%,0/3,0/3,"MIC [4, 12]: < 0.1 µg/mL; MIC [5, 13]: < 0.1 µg/mL; MIC (Vibrio coli SD-358): > 50 µg/mL; MIC (Vibrio coli SD-362): 25 µg/mL; MIC [8]: 12.5 µg/mL; Survival rate in a week after oral administration [9]: 90%"
"CCC(=O)OC1CC(=O)OC(C)CC=CC=CC(OC(C)=O)C(C)CC(CC=O)C(OC2OC(C)C(OC3CC(C)(OCSC)C(OC(=O)CC)C(C)O3)C(N(C)C)C2O)C1OC (stereo not shown) [9-acetyl-3""-thiomethoxymethyl-SF-837]",50 µg/mL,6.25 µg/mL,< 0.1 µg/mL,< 0.1 µg/mL,< 0.1 µg/mL,< 0.1 µg/mL,100 µg/mL,6.25 µg/mL,0.78 µg/mL,25 µg/mL,30%,80%,90%,100%,100%,100%,100%,100%,0/3,0/3,"MIC [4, 12]: < 0.1 µg/mL; MIC [5, 13]: < 0.1 µg/mL; MIC (Vibrio coli SD-358): > 50 µg/mL; MIC (Vibrio coli SD-362): 25 µg/mL; MIC [8]: 12.5 µg/mL; Survival rate in a week after oral administration [9]: 90%"
"CCC(=O)OC1CC(=O)OC(C)CC=CC=CC(OC(C)=O)C(C)CC(CC=O)C(OC2OC(C)C(OC3CC(C)(O)C(OC(=O)CC)C(C)O3)C(N(C)C)C2O)C1OC (stereo not shown) [9-Acetyl-SF-837, reference compound]",,,,,,,,,,,80%,100%,100%,100%,100%,100%,100%,100%,0/3,1/3,
